Reference: patent US8729082B2, “Substituted imidazoquinoxalines” (Bayer Intellectual Property GmbH, priority 2009, dated 2014)

molecular target: T1, human kinase Mps-1 (Homo sapiens, UniProt P33981); assay: Mps-1 kinase assay (HTRF); format: biochemical; conditions: lowATP; mean; read-out: Mps1 lowATP mean IC50
T1 construct: N-terminally GST-tagged human full length recombinant Mps-1 kinase; purchased Invitrogen, Karslruhe, Germany PV4071
T1 sequence (P33981 1-857): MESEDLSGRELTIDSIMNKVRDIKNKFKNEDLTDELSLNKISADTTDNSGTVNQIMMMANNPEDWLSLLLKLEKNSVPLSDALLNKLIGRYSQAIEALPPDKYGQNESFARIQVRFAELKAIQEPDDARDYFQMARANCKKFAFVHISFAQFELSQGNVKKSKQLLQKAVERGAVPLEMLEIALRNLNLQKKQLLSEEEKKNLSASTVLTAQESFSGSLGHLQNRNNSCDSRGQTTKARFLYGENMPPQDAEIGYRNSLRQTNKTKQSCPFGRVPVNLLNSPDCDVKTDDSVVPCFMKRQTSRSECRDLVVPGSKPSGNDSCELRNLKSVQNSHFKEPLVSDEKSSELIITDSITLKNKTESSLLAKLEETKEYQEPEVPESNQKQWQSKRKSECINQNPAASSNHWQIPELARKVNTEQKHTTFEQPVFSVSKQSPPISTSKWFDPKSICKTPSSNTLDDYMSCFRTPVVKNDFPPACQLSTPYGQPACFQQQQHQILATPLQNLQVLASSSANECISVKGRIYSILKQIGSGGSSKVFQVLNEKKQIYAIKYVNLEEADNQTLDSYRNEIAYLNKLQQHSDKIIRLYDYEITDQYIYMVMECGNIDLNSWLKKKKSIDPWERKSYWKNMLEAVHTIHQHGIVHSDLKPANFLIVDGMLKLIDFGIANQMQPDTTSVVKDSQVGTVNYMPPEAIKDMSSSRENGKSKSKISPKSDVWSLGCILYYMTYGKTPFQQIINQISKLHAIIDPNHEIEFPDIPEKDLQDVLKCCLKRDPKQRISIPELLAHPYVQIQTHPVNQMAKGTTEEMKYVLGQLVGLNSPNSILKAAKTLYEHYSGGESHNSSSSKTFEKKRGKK
Procedure, shortened: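 HTRF readout: EDTA-stopped reactions incubated 1 h with europium anti-phospho(Ser/Thr) antibody and streptavidin-XLent, emission ratio 665/620 nm after 350 nm excitation. Kinase step: compound pre-bound 15 min to ~1 nM GST-Mps-1, then 60 min at 22 °C with ATP and biotin-peptide substrate; inhibition scaled between no-inhibitor (0%) and no-enzyme (100%) controls.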

Row | Structure (SMILES) | IC50 [nM]
1 | N#Cc1ccc2c(c1)nc(NCC(F)(F)F)c1ncc(-c3ccc(C(=O)NC4CC4)cc3)n12 [Example 2-209, 4-{7-cyano-4-[(2,2,2-trifluoroethyl)amino]imidazo[1,2-a]quinoxalin-1-yl}-N-cyclopropylbenzamide] | 28.9
2 | N#Cc1ccc2c(c1)nc(NCc1ccccn1)c1ncc(-c3ccc(C(=O)NC4CC4)cc3)n12 [Example 2-213, 4-{7-cyano-4-[(pyridin-2-ylmethyl)amino]imidazo[1,2-a]quinoxalin-1-yl}-N-cyclopropylbenzamide] | 106
3 | N#Cc1ccc2c(c1)nc(NCc1cccnc1)c1ncc(-c3ccc(C(=O)NC4CC4)cc3)n12 [Example 2-214, 4-{7-cyano-4-[(pyridin-3-ylmethyl)amino]imidazo[1,2-a]quinoxalin-1-yl}-N-cyclopropylbenzamide] | 28.8
4 | N#Cc1ccc2c(c1)nc(NCc1ccco1)c1ncc(-c3ccc(C(=O)NC4CC4)cc3)n12 [Example 2-215, 4-{7-cyano-4-[(furan-2-ylmethyl)amino]imidazo[1,2-a]quinoxalin-1-yl}-N-cyclopropylbenzamide] | 24.8
5 | CC(C)CNc1nc2cc(C#N)ccc2n2c(-c3ccc(C(=O)NC4CC4)cc3)cnc12 [Example 2-216, 4-{7-cyano-4-[(2-methylpropyl)amino]imidazo[1,2-a]quinoxalin-1-yl}-N-cyclopropylbenzamide] | 9.56
6 | N#Cc1ccc2c(c1)nc(NCCC(N)=O)c1ncc(-c3ccc(C(=O)NC4CC4)cc3)n12 [Example 2-217, 4-{4-[(3-amino-3-oxopropyl)amino]-7-cyanoimidazo[1,2-a]quinoxalin-1-yl}-N-cyclopropylbenzamide] | 140
7 | Cn1ccc(CNc2nc3cc(C#N)ccc3n3c(-c4ccc(C(=O)NC5CC5)cc4)cnc23)n1 [Example 2-219, 4-(7-cyano-4-{[(1-methyl-1H-pyrazol-3-yl)methyl]amino}imidazo[1,2-a]quinoxalin-1-yl)-N-cyclopropylbenzamide] | 59.6
8 | Cn1nccc1CNc1nc2cc(C#N)ccc2n2c(-c3ccc(C(=O)NC4CC4)cc3)cnc12 [Example 2-220, 4-(7-cyano-4-{[(1-methyl-1H-pyrazol-5-yl)methyl]amino}imidazo[1,2-a]quinoxalin-1-yl)-N-cyclopropylbenzamide] | 15.6
9 | Cn1cc(CNc2nc3cc(C#N)ccc3n3c(-c4ccc(C(=O)NC5CC5)cc4)cnc23)cn1 [Example 2-221, 4-(7-cyano-4-{[(1-methyl-1H-pyrazol-4-yl)methyl]amino}imidazo[1,2-a]quinoxalin-1-yl)-N-cyclopropylbenzamide] | 67.1
10 | N#Cc1ccc2c(c1)nc(NCC(O)CO)c1ncc(-c3ccc(C(=O)NC4CC4)cc3)n12 (stereo not drawn) [Example 2-222, 4-{7-cyano-4-[(2,3-dihydroxypropyl)amino]imidazo[1,2-a]quinoxalin-1-yl}-N-cyclopropylbenzamide] | 127
11 | CCCNc1nc2cc(C#N)ccc2n2c(-c3ccc(C(=O)NC4CC4)c(Cl)c3)cnc12 [Example 2-234, 2-chloro-4-[7-cyano-4-(propylamino)imidazo[1,2-a]quinoxalin-1-yl]-N-cyclopropylbenzamide] | 810
12 | N#Cc1ccc2c(c1)nc(NCCO)c1ncc(-c3ccc(C(=O)NC4CC4)c(Cl)c3)n12 [Example 2-235, 2-chloro-4-{7-cyano-4-[(2-hydroxyethyl)amino]imidazo[1,2-a]quinoxalin-1-yl}-N-cyclopropylbenzamide] | 3450
13 | N#Cc1ccc2c(c1)nc(NCCCN1CCOCC1)c1ncc(-c3ccc(C(=O)NC4CC4)c(Cl)c3)n12 [Example 2-236, 2-chloro-4-(7-cyano-4-{[3-(morpholin-4-yl)propyl]amino}imidazo[1,2-a]quinoxalin-1-yl)-N-cyclopropylbenzamide] | 15000
14 | CC(C)CCNc1nc2cc(C#N)ccc2n2c(-c3ccc(C(=O)NC4CC4)c(Cl)c3)cnc12 [Example 2-237, 2-chloro-4-{7-cyano-4-[(3-methylbutyl)amino]imidazo[1,2-a]quinoxalin-1-yl}-N-cyclopropylbenzamide] | 600
15 | N#Cc1ccc2c(c1)nc(NCc1ccccc1F)c1ncc(-c3ccc(C(=O)NC4CC4)c(Cl)c3)n12 [Example 2-238, 2-chloro-4-{7-cyano-4-[(2-fluorobenzyl)amino]imidazo[1,2-a]quinoxalin-1-yl}-N-cyclopropylbenzamide] | 613

Second part, the compound after the results:

Row | IC50 [nM] | Structure (SMILES)
16 | 35.9 | CCNc1nc2cc(C#N)ccc2n2c(-c3ccc(C(=O)NC4CC4)cc3)cnc12 [Example 2-210, 4-[7-cyano-4-(ethylamino)imidazo[1,2-a]quinoxalin-1-yl]-N-cyclopropylbenzamide]
17 | 32.9 | N#Cc1ccc2c(c1)nc(NCCCO)c1ncc(-c3ccc(C(=O)NC4CC4)cc3)n12 [Example 2-211, 4-{7-cyano-4-[(3-hydroxypropyl)amino]imidazo[1,2-a]quinoxalin-1-yl}-N-cyclopropylbenzamide]
18 | 10 | CCCCNc1nc2cc(C#N)ccc2n2c(-c3ccc(C(=O)NC4CC4)cc3)cnc12 [Example 2-212, 4-[4-(butylamino)-7-cyanoimidazo[1,2-a]quinoxalin-1-yl]-N-cyclopropylbenzamide]
19 | 50.7 | COCCCNc1nc2cc(C#N)ccc2n2c(-c3ccc(C(=O)NC4CC4)cc3)cnc12 [Example 2-218, 4-{7-cyano-4-[(3-methoxypropyl)amino]imidazo[1,2-a]quinoxalin-1-yl}-N-cyclopropylbenzamide]
20 | 4320 | CNC(=O)Nc1ccc(-c2cnc3c(NCCO)nc4cc(C#N)ccc4n23)cc1 [Example 2-223, 1-(4-{7-cyano-4-[(2-hydroxyethyl)amino]imidazo[1,2-a]quinoxalin-1-yl}phenyl)-3-methylurea]
21 | 3290 | CNC(=O)Nc1ccc(-c2cnc3c(NCCC(C)C)nc4cc(C#N)ccc4n23)cc1 [Example 2-224, 1-(4-{7-cyano-4-[(3-methylbutyl)amino]imidazo[1,2-a]quinoxalin-1-yl}phenyl)-3-methylurea]
22 | 8110 | CNC(=O)Nc1ccc(-c2cnc3c(NCCCN4CCCC4=O)nc4cc(C#N)ccc4n23)cc1 [Example 2-225, 1-[4-(7-cyano-4-{[3-(2-oxopyrrolidin-1-yl)propyl]amino}imidazo[1,2-a]quinoxalin-1-yl)phenyl]-3-methylurea]
23 | 2820 | CNC(=O)Nc1ccc(-c2cnc3c(NCc4cccs4)nc4cc(C#N)ccc4n23)cc1 [Example 2-226, 1-(4-{7-cyano-4-[(thiophen-2-ylmethyl)amino]imidazo[1,2-a]quinoxalin-1-yl}phenyl)-3-methylurea]
24 | 3470 | CNC(=O)Nc1ccc(-c2cnc3c(NCCCO)nc4cc(C#N)ccc4n23)cc1 [Example 2-227, 1-(4-{7-cyano-4-[(3-hydroxypropyl)amino]imidazo[1,2-a]quinoxalin-1-yl}phenyl)-3-methylurea]
25 | 9780 | CNC(=O)Nc1ccc(-c2cnc3c(NCCNC(C)=O)nc4cc(C#N)ccc4n23)cc1 [Example 2-228, N-{2-[(7-cyano-1-{4-[(methylcarbamoyl)amino]phenyl}imidazo[1,2-a]quinoxalin-4-yl)amino]ethyl}acetamide]
26 | 4990 | CNC(=O)Nc1ccc(-c2cnc3c(NCCCn4ccnc4)nc4cc(C#N)ccc4n23)cc1 [Example 2-229, 1-[4-(7-cyano-4-{[3-(1H-imidazol-1-yl)propyl]amino}imidazo[1,2-a]quinoxalin-1-yl)phenyl]-3-methylurea]
27 | 1410 | CNC(=O)Nc1ccc(-c2cnc3c(NCc4cccnc4)nc4cc(C#N)ccc4n23)cc1 [Example 2-230, 1-(4-{7-cyano-4-[(pyridin-3-ylmethyl)amino]imidazo[1,2-a]quinoxalin-1-yl}phenyl)-3-methylurea]
28 | 5210 | CNC(=O)Nc1ccc(-c2cnc3c(NCc4ccco4)nc4cc(C#N)ccc4n23)cc1 [Example 2-231, 1-(4-{7-cyano-4-[(furan-2-ylmethyl)amino]imidazo[1,2-a]quinoxalin-1-yl}phenyl)-3-methylurea]
29 | 1140 | CNC(=O)Nc1ccc(-c2cnc3c(NCc4ccnn4C)nc4cc(C#N)ccc4n23)cc1 [Example 2-232, 1-[4-(7-cyano-4-{[(1-methyl-1H-pyrazol-5-yl)methyl]amino}imidazo[1,2-a]quinoxalin-1-yl)phenyl]-3-methylurea]
30 | 17800 | CNC(=O)Nc1ccc(-c2cnc3c(NCC(O)CO)nc4cc(C#N)ccc4n23)cc1 (stereo not drawn) [Example 2-233, 1-(4-{7-cyano-4-[(2,3-dihydroxypropyl)amino]imidazo[1,2-a]quinoxalin-1-yl}phenyl)-3-methylurea]
